{"source": "ChEMBL document CHEMBL5316268", "about": "(J Med Chem, 2023)", "key": {"[1]": {"assay": "AUC (0 to 24 hrs) in CD rat at 200 mg/kg, po measured for 24 hrs by LC-MS/MS analysis", "type": "ADME, organism-based", "design": "dose 200 mg/kg, time 24 hrs, route po", "conditions": "in vivo"}, "Cytochrome P450 3A4": {"target": "Cytochrome P450 3A4 (Homo sapiens, UniProt P08684)", "sequence (P08684 whole entry)": "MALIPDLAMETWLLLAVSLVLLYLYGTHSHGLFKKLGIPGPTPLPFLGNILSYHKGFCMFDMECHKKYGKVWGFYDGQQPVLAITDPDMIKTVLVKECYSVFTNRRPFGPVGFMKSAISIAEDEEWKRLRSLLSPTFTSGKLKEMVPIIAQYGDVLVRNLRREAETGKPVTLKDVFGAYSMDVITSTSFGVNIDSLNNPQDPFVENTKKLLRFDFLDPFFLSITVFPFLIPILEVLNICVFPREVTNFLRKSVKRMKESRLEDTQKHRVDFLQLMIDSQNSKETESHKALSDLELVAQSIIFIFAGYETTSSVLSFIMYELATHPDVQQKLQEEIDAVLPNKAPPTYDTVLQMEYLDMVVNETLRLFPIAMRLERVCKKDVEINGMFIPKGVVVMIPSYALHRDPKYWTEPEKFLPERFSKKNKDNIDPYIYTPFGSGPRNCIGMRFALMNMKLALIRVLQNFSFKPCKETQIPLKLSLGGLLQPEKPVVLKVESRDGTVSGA", "assay": "Inhibition of human CYP3A4 at 10 uM", "type": "ADME"}, "[2]": {"assay": "Plasma protein binding in monkey at 10 uM assessed as bound fraction", "type": "ADME, cell-free, Macaca mulatta", "conditions": "rhesus monkey, read-out: PPB (converted)"}, "[3]": {"assay": "Aqueous solubility of compound at pH 1 to 7", "type": "physicochemical", "conditions": "aqueous solution"}, "[4]": {"assay": "Plasma protein binding in rat at 10 uM assessed as bound fraction", "type": "ADME, cell-free", "conditions": "read-out: PPB (converted)"}, "EG7 [5]": {"tested_on": "EG7", "assay": "Antitumor activity against mouse EG7 cells implanted in C57BL/6 mouse assessed as reduction in tumor volume at 50 mg/kg, po bid administered for 19 days in presence of doxorubicin", "type": "functional, organism-based", "conditions": "time 19.0 day"}, "A-375": {"tested_on": "A-375", "assay": "Antiproliferative activity against human A-375 cells at 100 uM incubated for 3 days by Cell Titer-Glo assay", "type": "functional, cell-based", "conditions": "time 3.0 day"}, "5'-nucleotidase [6]": {"target": "T1, 5'-nucleotidase (Mus musculus, UniProt Q61503)", "T1 sequence (Q61503 whole entry)": "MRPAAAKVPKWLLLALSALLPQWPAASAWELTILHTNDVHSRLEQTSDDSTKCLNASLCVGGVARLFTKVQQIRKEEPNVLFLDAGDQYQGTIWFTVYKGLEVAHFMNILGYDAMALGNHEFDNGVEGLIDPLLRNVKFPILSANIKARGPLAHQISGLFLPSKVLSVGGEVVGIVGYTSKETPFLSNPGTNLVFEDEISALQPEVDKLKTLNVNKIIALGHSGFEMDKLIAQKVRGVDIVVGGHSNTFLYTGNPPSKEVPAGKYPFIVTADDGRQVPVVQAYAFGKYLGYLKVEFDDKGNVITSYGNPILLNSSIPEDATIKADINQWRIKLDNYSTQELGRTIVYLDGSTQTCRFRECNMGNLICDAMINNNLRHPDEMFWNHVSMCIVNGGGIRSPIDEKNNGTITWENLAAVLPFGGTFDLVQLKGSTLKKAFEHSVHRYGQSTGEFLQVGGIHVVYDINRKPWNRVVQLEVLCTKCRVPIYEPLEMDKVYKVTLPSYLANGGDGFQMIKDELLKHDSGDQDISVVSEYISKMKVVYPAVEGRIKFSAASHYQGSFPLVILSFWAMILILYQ", "assay": "Inhibition of C-terminal 6His-tagged recombinant mouse CD73 (29 to 549 residues) expressed in CHO cells incubated for 1 hr by malachite green assay", "type": "cell-based"}, "EG7 [7]": {"tested_on": "EG7", "assay": "Antitumor activity against mouse EG7 cells implanted in C57BL/6 mouse assessed as activation of tumor-directed immune response by measuring increase in tumor-infiltrating CD8 positive cells at 50 mg/kg, po bid measured after 14 days by flow cytometry", "type": "functional, organism-based", "conditions": "time 14.0 day"}, "[8]": {"assay": "Drug concentration in tumor of mouse implanted with mouse EG7 cells at 10 to 50 mg/kg, po bid administered for 20 days and measured after 16 hrs post-last dose by LC/MS analysis", "type": "ADME, organism-based, Neoplasm", "conditions": "dose 10-50 mg/kg, time 20 day, read-out: Ct"}, "5'-nucleotidase [9]": {"target": "T2, 5'-nucleotidase (Homo sapiens, UniProt P21589)", "T2 sequence (P21589 whole entry)": "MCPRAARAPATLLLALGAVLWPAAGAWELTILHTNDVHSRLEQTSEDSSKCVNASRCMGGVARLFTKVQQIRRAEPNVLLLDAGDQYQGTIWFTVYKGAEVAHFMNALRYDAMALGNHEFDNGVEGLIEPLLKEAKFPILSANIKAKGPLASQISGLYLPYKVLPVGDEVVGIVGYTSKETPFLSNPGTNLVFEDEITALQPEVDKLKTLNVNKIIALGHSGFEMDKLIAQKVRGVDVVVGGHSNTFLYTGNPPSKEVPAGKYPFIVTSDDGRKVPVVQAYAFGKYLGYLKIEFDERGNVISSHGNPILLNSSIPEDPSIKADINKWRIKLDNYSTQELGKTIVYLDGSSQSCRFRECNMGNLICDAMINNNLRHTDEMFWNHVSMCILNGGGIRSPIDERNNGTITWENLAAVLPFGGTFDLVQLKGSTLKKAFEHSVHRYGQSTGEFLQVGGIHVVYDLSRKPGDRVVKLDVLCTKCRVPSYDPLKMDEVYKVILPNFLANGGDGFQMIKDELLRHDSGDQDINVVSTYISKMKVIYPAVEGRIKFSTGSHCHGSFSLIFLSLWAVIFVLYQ", "assay": "Inhibition of CD73 in human plasma derived from esophageal cancer patient incubated for 15 mins in presence of 15N5-AMP by LC/MS analysis", "type": "cell-free"}, "[10]": {"assay": "AUC (0 to 24 hrs) in CD rat at 50 mg/kg, po measured for 24 hrs by LC-MS/MS analysis", "type": "ADME, organism-based", "design": "time 24 hrs, dose 50 mg/kg, route po", "conditions": "in vivo"}, "5'-nucleotidase [11]": {"target": "T2, 5'-nucleotidase", "assay": "Inhibition of CD73 in human plasma derived from ovarian cancer patient incubated for 15 mins in presence of 15N5-AMP by LC/MS analysis", "type": "cell-free"}, "EG7 [12]": {"tested_on": "EG7", "assay": "Antitumor activity against mouse EG7 cells implanted in C57BL/6 mouse assessed as reduction in tumor volume at 10 to 50 mg/kg, po bid administered for 20 days", "type": "functional, organism-based", "conditions": "dose 10-50 mg/kg, time 20.0 day"}, "Cytochrome P450 2D6": {"target": "Cytochrome P450 2D6 (Homo sapiens, UniProt P10635)", "sequence (P10635 whole entry)": "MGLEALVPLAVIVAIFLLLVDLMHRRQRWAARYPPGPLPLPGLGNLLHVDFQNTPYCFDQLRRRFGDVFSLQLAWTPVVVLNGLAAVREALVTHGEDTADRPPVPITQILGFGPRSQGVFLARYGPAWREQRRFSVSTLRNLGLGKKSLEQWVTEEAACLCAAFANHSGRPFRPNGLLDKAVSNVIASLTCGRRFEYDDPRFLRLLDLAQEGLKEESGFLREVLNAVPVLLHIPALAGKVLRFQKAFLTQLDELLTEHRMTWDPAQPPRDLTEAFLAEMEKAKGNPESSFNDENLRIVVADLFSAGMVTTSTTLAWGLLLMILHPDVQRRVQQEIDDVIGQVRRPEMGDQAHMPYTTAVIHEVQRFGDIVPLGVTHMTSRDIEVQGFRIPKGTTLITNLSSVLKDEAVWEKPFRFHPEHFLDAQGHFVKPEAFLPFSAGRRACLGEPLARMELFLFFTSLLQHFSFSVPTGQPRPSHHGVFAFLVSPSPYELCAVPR", "assay": "Inhibition of human CYP2D6 at 10 uM", "type": "ADME"}, "[13]": {"assay": "Cmax in CD rat at 50 mg/kg, po measured for 24 hrs by LC-MS/MS analysis", "type": "ADME, organism-based", "design": "dose 50 mg/kg, time 24 hrs, route po", "conditions": "in vivo"}, "5'-nucleotidase [14]": {"target": "T1, 5'-nucleotidase", "assay": "Inhibition of CD73 in mouse plasma incubated for 5 mins in presence of 15N5-AMP by LC/MS analysis", "type": "cell-free"}, "Cytochrome P450 2C9": {"target": "Cytochrome P450 2C9 (Homo sapiens, UniProt P11712)", "sequence (P11712 whole entry)": "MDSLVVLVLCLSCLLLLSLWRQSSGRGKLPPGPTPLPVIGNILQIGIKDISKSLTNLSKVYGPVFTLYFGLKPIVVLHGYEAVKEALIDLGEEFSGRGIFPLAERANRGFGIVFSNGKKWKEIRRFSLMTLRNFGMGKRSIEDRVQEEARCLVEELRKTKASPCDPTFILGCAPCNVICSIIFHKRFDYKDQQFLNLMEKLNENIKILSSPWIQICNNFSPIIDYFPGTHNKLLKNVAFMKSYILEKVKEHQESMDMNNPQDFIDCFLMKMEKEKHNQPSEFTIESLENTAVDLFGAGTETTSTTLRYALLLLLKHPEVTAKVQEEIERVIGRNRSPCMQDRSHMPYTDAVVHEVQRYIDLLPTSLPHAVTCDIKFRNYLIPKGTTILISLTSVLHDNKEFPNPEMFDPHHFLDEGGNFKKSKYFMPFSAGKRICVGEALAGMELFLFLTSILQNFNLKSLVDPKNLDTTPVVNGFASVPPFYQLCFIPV", "assay": "Inhibition of human CYP2C9 at 10 uM", "type": "ADME"}, "[15]": {"assay": "Tmax in CD rat at 500 mg/kg, po measured for 24 hrs by LC-MS/MS analysis", "type": "ADME, organism-based", "conditions": "in vivo"}, "[16]": {"assay": "Plasma protein binding in dog at 10 uM assessed as bound fraction", "type": "ADME, cell-free, Canis lupus familiaris", "conditions": "read-out: PPB (converted)"}, "EG7 [17]": {"tested_on": "EG7", "assay": "Antiproliferative activity against mouse EG7 cells at 100 uM incubated for 3 days by Cell Titer-Glo assay", "type": "functional, cell-based", "conditions": "time 3.0 day"}, "[18]": {"assay": "Selectivity ratio of IC50 for CD73 in human plasma to IC50 for C-terminal 6His-tagged recombinant human CD73 (27 to 547 residues) expressed in CHO cells", "type": "cell-based"}, "EG7 [19]": {"tested_on": "EG7", "assay": "Antitumor activity against mouse EG7 cells implanted in C57BL/6 mouse assessed as reduction in tumor volume at 100 mg/kg, po bid administered for 23 days in presence of oxaliplatin", "type": "functional, organism-based", "conditions": "time 23.0 day"}, "[20]": {"assay": "Plasma protein binding in human assessed as unbound fraction", "type": "ADME, cell-free"}, "[21]": {"assay": "Drug concentration in CD rat plasma at 50 to 500 mg/kg, po measured for 24 hrs by LC-MS/MS analysis", "type": "ADME, organism-based", "conditions": "dose 50-500 mg/kg"}, "[22]": {"assay": "Tmax in CD rat at 50 mg/kg, po measured for 24 hrs by LC-MS/MS analysis", "type": "ADME, organism-based", "conditions": "in vivo"}, "[23]": {"assay": "Cytotoxicity against human CD8-positive T cells at 100 uM incubated for 4 days by Cell Titer-Glo assay", "type": "toxicity, cell-based", "conditions": "96 h, time 4 day"}}, "note": "Activity calls are given as the source filed them. The rule behind the calls is not given here.", "data": [{"smiles": "C#C[C@@]1(O)[C@@H](COC(Cc2ccc(N3CCCNC3=O)cc2)(C(=O)O)C(=O)O)O[C@@H](n2cnc3c(N)nc(Cl)nc32)[C@@H]1O", "values": [{"measurement": "AUC(0-t) at 24 h", "setting": "[1]", "result": 6090, "unit": "ng·h/mL"}, {"measurement": "inhibition (INH)", "setting": "Cytochrome P450 3A4", "result": "Not Active"}, {"measurement": "fraction unbound at 10 µM", "setting": "[2]", "result": 0.4}, {"measurement": "solubility", "setting": "[3]", "result": 3880, "unit": "µg/mL"}, {"measurement": "fraction unbound at 10 µM", "setting": "[4]", "result": 0.29}, {"measurement": "Activity", "setting": "EG7 [5]", "result": "Active"}, {"measurement": "Activity", "setting": "A-375", "result": "inactive"}, {"measurement": "IC50", "setting": "5'-nucleotidase [6]", "result": 1.3, "unit": "nM"}, {"measurement": "Activity", "setting": "EG7 [7]", "result": "Active"}, {"measurement": "concentration at 480 h", "setting": "[8]", "result": "> 3", "unit": "nM"}, {"measurement": "IC50", "setting": "5'-nucleotidase [9]", "result": 0.1, "unit": "nM"}, {"measurement": "AUC", "setting": "[10]", "result": 580, "unit": "ng·h/mL"}, {"measurement": "IC50", "setting": "5'-nucleotidase [11]", "result": 0.15, "unit": "nM"}, {"measurement": "Activity", "setting": "EG7 [12]", "result": "Active"}, {"measurement": "inhibition (INH)", "setting": "Cytochrome P450 2D6", "result": "Not Active"}, {"measurement": "Cmax", "setting": "[13]", "result": 74, "unit": "nM"}, {"measurement": "IC50", "setting": "5'-nucleotidase [14]", "result": 1.2, "unit": "nM"}, {"measurement": "inhibition (INH)", "setting": "Cytochrome P450 2C9", "result": "Not Active"}, {"measurement": "Tmax", "setting": "[15]", "result": 18, "unit": "min"}, {"measurement": "fraction unbound at 10 µM", "setting": "[16]", "result": 0.58}, {"measurement": "Activity", "setting": "EG7 [17]", "result": "inactive"}, {"measurement": "Ratio IC50", "setting": "[18]", "result": 2.2}, {"measurement": "Activity", "setting": "EG7 [19]", "result": "Active"}, {"measurement": "fraction unbound", "setting": "[20]", "result": 0.42}, {"measurement": "concentration at 24 h", "setting": "[21]", "result": "> 3", "unit": "nM"}, {"measurement": "Tmax", "setting": "[22]", "result": 48, "unit": "min"}, {"measurement": "Activity", "setting": "[23]", "result": "Non-Toxic"}]}]}
